30 compounds from patent US8394848B2, “Compounds that modulate intracellular calcium” (Calcimedica, Inc., priority 2008, dated 2013) can be followed below.

The test deals with JR251 or RBL cells. The test is described as follows: Store-operated calcium entry, either JR251 or RBL cells, or both. Type of test: cell-based. The essentials:
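FLIPR calcium-entry readout in fluo-4-loaded cells held in Ca2+-free HBSS before calcium add-back. For RBL-2H3, store depletion used thapsigargin for 25 min after a 5 min compound pre-incubation, and IC50 was based on the 7 s Upslope. For Orai1/STIM1 stable cells, compound was pre-incubated 30 min and IC50 was based on Peak-Basal.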

For `O=C(CCc1ccc(F)cc1F)Nc1scc(-c2ccc(Br)cc2)c1C(=O)O` [4-(4-bromophenyl)-2-(3-(2,4-difluorophenyl)propanamido)thiophene-3-carboxylic acid], the IC50 is < 10 µM. Then `O=C(O)c1c(-c2ccc(Br)cc2)csc1NC(=O)C(F)Cc1c(Cl)cccc1Cl` (stereo not drawn) [4-(4-bromophenyl)-2-(3-(2,6-dichlorophenyl)-2-fluoropropanamido)thiophene-3-carboxylic acid], with < 10 µM; and `O=C(CCc1c(Cl)cccc1Cl)Nc1scc(-c2ccc(Br)cc2)c1C(=O)O` [4-(4-bromophenyl)-2-(3-(2,6-dichlorophenyl)propanamido)thiophene-3-carboxylic acid], with < 10 µM; and `Cc1cccc(C)c1CCC(=O)Nc1scc(-c2ccc(Br)cc2)c1C(=O)O` [4-(4-bromophenyl)-2-(3-(2,6-dimethylphenyl)propanamido)thiophene-3-carboxylic acid], with < 10 µM. Then `O=C(O)c1c(-c2ccc(Br)cc2)csc1NC(=O)C(F)Cc1cc(F)c(F)cc1Cl` (stereo not drawn) [4-(4-bromophenyl)-2-(3-(2-chloro-4,5-difluorophenyl)-2-fluoropropanamido)thiophene-3-carboxylic acid], with < 10 µM; and `O=C(O)c1c(-c2ccc(Br)cc2)csc1NC(=O)C(F)Cc1ccc(F)cc1Cl` (stereo not drawn) [4-(4-bromophenyl)-2-(3-(2-chloro-4-fluorophenyl)-2-fluoropropanamido)thiophene-3-carboxylic acid], with < 10 µM; and `O=C(O)c1c(-c2ccc(Br)cc2)csc1NC(=O)C(F)Cc1cc(F)ccc1Cl` (stereo not drawn) [4-(4-bromophenyl)-2-(3-(2-chloro-5-fluorophenyl)-2-fluoropropanamido)thiophene-3-carboxylic acid], with < 10 µM. For the compound `O=C(O)c1c(-c2ccc(Br)cc2)csc1NC(=O)C(F)Cc1c(F)cccc1Cl` (stereo not drawn) [4-(4-bromophenyl)-2-(3-(2-chloro-6-fluorophenyl)-2-fluoropropanamido)thiophene-3-carboxylic acid], the IC50 is < 10 µM. With `O=C(O)c1c(-c2ccc(Br)cc2)csc1NC(=O)C(F)Cc1ccccc1Cl` (stereo not drawn) [4-(4-bromophenyl)-2-(3-(2-chlorophenyl)-2-fluoropropanamido)thiophene-3-carboxylic acid], the IC50 was < 10 µM.

Regarding `O=C(CCc1ccccc1Cl)Nc1scc(-c2ccc(Br)cc2)c1C(=O)O` [4-(4-bromophenyl)-2-(3-(2-chlorophenyl)propanamido)thiophene-3-carboxylic acid], the half-maximal inhibitory concentration (IC50) was < 10 µM. Take `O=C(CCc1ccccc1F)Nc1scc(-c2ccc(Br)cc2)c1C(=O)O` [4-(4-bromophenyl)-2-(3-(2-fluorophenyl)propanamido)thiophene-3-carboxylic acid]: the 50% inhibitory concentration (IC50) is < 10 µM.

`O=C(CCc1ccc(F)c(F)c1)Nc1scc(-c2ccc(Br)cc2)c1C(=O)O` [4-(4-bromophenyl)-2-(3-(3,4-difluorophenyl)propanamido)thiophene-3-carboxylic acid]: the IC50 is < 10 µM. Next, `CCc1cccc(NC(=O)Nc2scc(-c3ccc(Br)cc3)c2C(=O)O)c1` [4-(4-bromophenyl)-2-(3-(3-ethylphenyl)ureido)thiophene-3-carboxylic acid]: < 10 µM; `O=C(CCc1cccc(F)c1)Nc1scc(-c2ccc(Br)cc2)c1C(=O)O` [4-(4-bromophenyl)-2-(3-(3-fluorophenyl)propanamido)thiophene-3-carboxylic acid]: < 10 µM; `O=C(Nc1cccc(F)c1)Nc1scc(-c2ccc(Br)cc2)c1C(=O)O` [4-(4-bromophenyl)-2-(3-(3-fluorophenyl)ureido)thiophene-3-carboxylic acid]: < 10 µM. Next, `COc1cccc(CCC(=O)Nc2scc(-c3ccc(Br)cc3)c2C(=O)O)c1` [4-(4-bromophenyl)-2-(3-(3-methoxyphenyl)propanamido)thiophene-3-carboxylic acid]: < 10 µM.

With `O=C(CCc1ccc(F)cc1)Nc1scc(-c2ccc(Br)cc2)c1C(=O)O` [4-(4-bromophenyl)-2-(3-(4-fluorophenyl)propanamido)thiophene-3-carboxylic acid], the IC50 was < 10 µM. Then `COc1ccc(CCC(=O)Nc2scc(-c3ccc(Br)cc3)c2C(=O)O)cc1` [4-(4-bromophenyl)-2-(3-(4-methoxyphenyl)propanamido)thiophene-3-carboxylic acid], with < 10 µM; and `O=C(CCc1ccco1)Nc1scc(-c2ccc(Br)cc2)c1C(=O)O` [4-(4-bromophenyl)-2-(3-(furan-2-yl)propanamido)thiophene-3-carboxylic acid], with < 10 µM. As for `O=C(CCc1cccs1)Nc1scc(-c2ccc(Br)cc2)c1C(=O)O` [4-(4-bromophenyl)-2-(3-(thiophen-2-yl)propanamido)thiophene-3-carboxylic acid], the IC50 is < 10 µM. Then `COC1CCCC(C(=O)Nc2scc(-c3ccc(Br)cc3)c2C(=O)O)C1` (stereo not drawn) [4-(4-bromophenyl)-2-(3-methoxycyclohexanecarboxamido)thiophene-3-carboxylic acid], with < 10 µM; and `Cc1ccsc1C(=O)Nc1scc(-c2ccc(Br)cc2)c1C(=O)O` [4-(4-bromophenyl)-2-(3-methylthiophene-2-carboxamido)thiophene-3-carboxylic acid], with < 10 µM; and `O=C(O)c1c(-c2ccc(Br)cc2)csc1Nc1nc(-c2ccccc2)no1` [4-(4-bromophenyl)-2-(3-phenyl-1,2,4-oxadiazol-5-ylamino)thiophene-3-carboxylic acid], with < 10 µM.

Consider `O=C(CCc1ccccc1)Nc1scc(-c2ccc(Br)cc2)c1C(=O)O` [4-(4-bromophenyl)-2-(3-phenylpropanamido)thiophene-3-carboxylic acid], for which the IC50 is < 10 µM. Next, `Cc1c(S(=O)(=O)c2ccc(Cl)cc2)csc1C(=O)Nc1scc(-c2ccc(Br)cc2)c1C(=O)O` [4-(4-bromophenyl)-2-(4-(4-chlorophenylsulfonyl)-3-methylthiophene-2-carboxamido)thiophene-3-carboxylic acid]: < 10 µM.

Turning to `O=C(Nc1scc(-c2ccc(Br)cc2)c1C(=O)O)c1nc2c(F)cccc2o1` [4-(4-bromophenyl)-2-(4-fluorobenzo[d]oxazole-2-carboxamido)thiophene-3-carboxylic acid], the IC50 was < 10 µM. Then `O=C(Nc1scc(-c2ccc(Br)cc2)c1C(=O)O)c1cc2c(F)cccn2n1` [4-(4-bromophenyl)-2-(4-fluoropyrazolo[1,5-a]pyridine-2-carboxamido)thiophene-3-carboxylic acid], with < 10 µM; and `Cc1nnsc1C(=O)Nc1scc(-c2ccc(Br)cc2)c1C(=O)O` [4-(4-bromophenyl)-2-(4-methyl-1,2,3-thiadiazole-5-carboxamido)thiophene-3-carboxylic acid], with < 10 µM.

As for `O=C(Nc1scc(-c2ccc(Br)cc2)c1C(=O)O)c1cc2occc2[nH]1` [4-(4-bromophenyl)-2-(4H-furo[3,2-b]pyrrole-5-carboxamido)thiophene-3-carboxylic acid], the IC50 was < 10 µM. As to `O=C(Nc1scc(-c2ccc(Br)cc2)c1C(=O)O)c1cc2sccc2[nH]1` [4-(4-bromophenyl)-2-(4H-thieno[3,2-b]pyrrole-5-carboxamido)thiophene-3-carboxylic acid], the IC50 was < 10 µM.
